Data reported in US12285490B2, “ASH1L degraders and methods of treatment therewith” (The Regents of the University of Michigan, priority 2017, dated 2025).

What was measured:
ASH1L = molecular target: T1, ASH1L (Homo sapiens, UniProt Q9NR48); test: Western blot of ASH1L degradation in HeLa cells; format: cell-based
T1 construct: endogenous in cells; host or cells: HeLa cells
Description: The 2.5×10^5 HeLa cells were treated with compounds for 24 h followed by the lysis in the RIPA buffer. The protein samples were loaded and run in the 3-8% Tris-acetate gel. After transferring proteins to the PVDF membrane, 5% bovine serum albumin solution was used for blocking for 2 h at room temperature. The membranes were incubated with the ASH1L-specific antibody (Bethyl A301-749A) at 4° C. overnight and subsequently with the anti-rabbit secondary antibody (Cell signaling technology, 7074S). The blots were detected by an ECL detection system (Amersham, RPN2236).

[1] = system: acute leukemia cell lines; test: Differentiation of leukemia cells (Cytospin/Wright-Giemsa staining); format: cell-based, human; details: after 7 days of treatment
Description: 1×10^5 of leukemia cells treated with compounds or DMSO were harvested and placed in a Shandon EZ Single Cytofunnel (Thermo Fisher). Samples were centrifuged at 600 rpm for 5 min. The slides were air dried before staining with a Hema-3 kit (Thermo Fisher).

[2] = system: MLL fusion target genes in MV4:11 MLL leukemia cell line; test: Quantitative RT-PCR gene expression in MV4:11 cells; format: cell-based, human; details: after 7 days of treatment
Description: (§1) Total RNA was extracted from cells using the RNeasy mini kit (QIAGEN), and then 100-2000 ng of total RNA was reverse transcribed using the High Capacity cDNA Reverse Transcription Kit (Applied Biosystems) according to the manufacturer's protocol. Real-time PCR was performed using a CFX96 Real-Time PCR Detection System (Biorad). TaqMan Gene Expression Master Mix and TaqMan Gene Expression Assays were purchased from Thermo Fisher. Relative quantification of each gene transcript was carried out using the ΔΔCt method as described in the Biorad Real-Time PCR Applications Guide.

[3] = system: acute leukemia cell lines; test: Cell viability / proliferation in various acute leukemia cell lines; format: cell-based, human; details: after 7 days of treatment
Description: (§2) Human leukemia cells were plated at 1×10^5 cells/ml in 24-well plates, treated with 0.25% DMSO or compounds and cultured at 37° C. for 7-14 days. Every four days, the volume corresponding to 1×10^5 cells of DMSO-treated cells was spun down and resuspended in fresh media with fresh compound. At day 0 and each four day interval, 100 μl aliquots of the cell suspension were transferred to 96-well plates in quadruplicates. The quadruplicate samples were incubated for 3-4 days at 37° C., and then an MTI cell proliferation assay kit (Roche) was used to measure viable cells. Absorbance was read at 570 nm using a PHERAstar (BMG) microplate reader.

MV4:11 = test: Cell viability assay (MTT) in MV4:11 cells; format: cell-based; details: Homo sapiens, 168 h; MV4:11, after 7 days of treatment
Description: as §2

KOPN8 = test: Cell viability assay (MTT) in KOPN8 cells; format: cell-based; details: Homo sapiens, KOPN-8, 168 h; KOPN8, after 7 days of treatment
Description: as §2

[4] = system: MV4:11 xenotransplantation model; test: In vivo efficacy in MV4:11 xenotransplantation model; details: MV4:11 xenotransplantation model in mice, 25 mg/kg, i.p., q.d., 17 days of treatment
Source text: Exemplary compounds disclosed herein, were used for in vivo studies in mice. Immunocompromised 8-10 week-old female NSG mice were used for in vivo efficacy studies in accordance with IACUC guidelines. Luciferase expressing human MV4:11 leukemia cells (MV4:11-luc) were engrafted intravenously via tail vein injection (1×10^7 cells/animal). Five days after transplantation mice were randomly assigned to a vehicle control or a compound treatment group (6-7 animals per group). Animals in each of the treatment groups were administered vehicle or compound A of the present disclosure by intraperitoneal (i.p.) injection. Treatment was continued for 17 days. Body weight was measured daily, while mean luminescence signal was measured in all mice at days 10 and 17 after initiating the treatment. […]

K562 control cell line = test: Cell viability assay (MTT) in K562 control cell line; format: cell-based; details: Homo sapiens, 168 h, after 7 days of treatment
Description: as §2

MOLM13 = test: Cell viability assay (MTT) in MOLM13 cells; format: cell-based; details: Homo sapiens, MOLM-13, 168 h; MOLM13, after 7 days of treatment
Description: as §2

[5] = system: MLL fusion protein target genes in MOLM13 leukemia cell line; test: Quantitative RT-PCR gene expression in MOLM13 cells; format: cell-based, human; details: after 6 days of treatment at 150 nM
Description: as §1

Structure (SMILES) | Degradation of ASH1L (ASH1L; FIG. 1, Western blot) | Differentiation [1] | Expression of MLL fusion target genes [2] | Cell proliferation / viability [3] | Degradation of ASH1L (ASH1L; HeLa cells, after 24 h of treatment, FIG. 4 Panel A) | GI50 (MV4:11) | GI50 (KOPN8) | Leukemia progression in vivo (bioluminescence signal, hCD45+ cells) [4] | GI50 (K562 control cell line) | GI50 (MOLM13) | Expression of MLL fusion protein target genes [5]
NC(=S)c1cccc(-c2cn(CC(CF)CF)c3cc(NC(=O)CCOCCOCCOCCOc4cccc5c4C(=O)N(C4CCC(=O)NC4=O)C5=O)ccc23)c1 (stereo not drawn) [Compound 1, N-(3-(3-carbamothioylphenyl)-1-(3-fluoro-2-(fluoromethyl)propyl)-1H-indol-6-yl)-3-(2-(2-(2-((2-(2,6-dioxopiperidin-3-yl)-1,3-dioxoisoindolin-4-yl)oxy)ethoxy)ethoxy)ethoxy)propanamide] | Degradation of Ash1L induced | induces differentiation | downregulates expression of MLL fusion target genes | selectively blocks proliferation | – | – | – | – | – | – | –
NC(=S)c1cccc(-c2cn(C3CCC(F)(F)CC3)c3cc(NC(=O)CCCCCCCCNC(=O)COc4cccc5c4C(=O)N(C4CCC(=O)NC4=O)C5=O)ccc23)c1 (stereo not drawn) [Compound 24, N-(3-(3-carbamothioylphenyl)-1-(4,4-difluorocyclohexyl)-1H-indol-6-yl)-9-(2-((2-(2,6-dioxopiperidin-3-yl)-1,3-dioxoisoindolin-4-yl)oxy)acetamido)nonanamide] | – | – | – | inhibits viability | induces degradation of ASH1L | 62 nM | 103 nM | blocks leukemia progression | > 6000 nM | 52 nM | downregulates the expression of MLL fusion protein target genes
